pIC50: −log10 of the molar value.
Experiments:
[1] = biological target: Poly [ADP-ribose] polymerase 1 (Homo sapiens, UniProt P09874); assay: Inhibition of PARP1 (unknown origin) at 1 nM preincubated with compound for 10 mins followed by DNA and NAD+ addition and measured after 60 mins by chemiluminescence based envision reader analysis relative to control; settings: time 70.0 min
MDA-MB-436 [2] = assay: Antiproliferative activity against human MDA-MB-436 cells assessed as inhibition of cell proliferation at 100 nM incubated for 7 days by CCK-8 assay relative to control; format: functional; settings: MDA-MB-436, 168 h, time 7 day
MDA-MB-436 [3] = assay: Antiproliferative activity against human MDA-MB-436 cells assessed as reduction in cell viability incubated for 7 days by CCK-8 assay; format: functional, cell-based; settings: MDA-MB-436, 168 h
[4] = biological target: Poly [ADP-ribose] polymerase 2 (Homo sapiens, UniProt Q9UGN5); assay: Inhibition of PARP2 (unknown origin) at 1 uM preincubated with compound for 10 mins followed by DNA and NAD+ addition and measured after 60 mins by chemiluminescence based envision reader analysis relative to control; settings: time 70.0 min
Sequence of Poly [ADP-ribose] polymerase 2 (Q9UGN5 whole entry): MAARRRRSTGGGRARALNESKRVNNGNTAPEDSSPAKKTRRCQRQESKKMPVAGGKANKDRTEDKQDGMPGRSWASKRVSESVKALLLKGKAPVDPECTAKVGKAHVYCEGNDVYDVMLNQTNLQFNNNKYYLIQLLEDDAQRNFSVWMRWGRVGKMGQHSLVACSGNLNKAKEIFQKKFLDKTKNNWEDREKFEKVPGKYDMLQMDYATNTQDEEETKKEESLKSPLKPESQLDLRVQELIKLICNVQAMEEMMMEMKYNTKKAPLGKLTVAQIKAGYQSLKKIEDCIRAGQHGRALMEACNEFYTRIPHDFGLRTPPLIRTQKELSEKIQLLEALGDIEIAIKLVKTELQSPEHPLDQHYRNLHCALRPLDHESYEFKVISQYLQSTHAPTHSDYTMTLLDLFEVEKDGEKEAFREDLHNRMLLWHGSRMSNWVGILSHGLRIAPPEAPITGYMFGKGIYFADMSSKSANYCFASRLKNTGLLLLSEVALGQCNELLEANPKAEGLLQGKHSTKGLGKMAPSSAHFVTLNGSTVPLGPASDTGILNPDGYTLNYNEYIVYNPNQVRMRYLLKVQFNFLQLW

Sequence of Poly [ADP-ribose] polymerase 1 (P09874 whole entry): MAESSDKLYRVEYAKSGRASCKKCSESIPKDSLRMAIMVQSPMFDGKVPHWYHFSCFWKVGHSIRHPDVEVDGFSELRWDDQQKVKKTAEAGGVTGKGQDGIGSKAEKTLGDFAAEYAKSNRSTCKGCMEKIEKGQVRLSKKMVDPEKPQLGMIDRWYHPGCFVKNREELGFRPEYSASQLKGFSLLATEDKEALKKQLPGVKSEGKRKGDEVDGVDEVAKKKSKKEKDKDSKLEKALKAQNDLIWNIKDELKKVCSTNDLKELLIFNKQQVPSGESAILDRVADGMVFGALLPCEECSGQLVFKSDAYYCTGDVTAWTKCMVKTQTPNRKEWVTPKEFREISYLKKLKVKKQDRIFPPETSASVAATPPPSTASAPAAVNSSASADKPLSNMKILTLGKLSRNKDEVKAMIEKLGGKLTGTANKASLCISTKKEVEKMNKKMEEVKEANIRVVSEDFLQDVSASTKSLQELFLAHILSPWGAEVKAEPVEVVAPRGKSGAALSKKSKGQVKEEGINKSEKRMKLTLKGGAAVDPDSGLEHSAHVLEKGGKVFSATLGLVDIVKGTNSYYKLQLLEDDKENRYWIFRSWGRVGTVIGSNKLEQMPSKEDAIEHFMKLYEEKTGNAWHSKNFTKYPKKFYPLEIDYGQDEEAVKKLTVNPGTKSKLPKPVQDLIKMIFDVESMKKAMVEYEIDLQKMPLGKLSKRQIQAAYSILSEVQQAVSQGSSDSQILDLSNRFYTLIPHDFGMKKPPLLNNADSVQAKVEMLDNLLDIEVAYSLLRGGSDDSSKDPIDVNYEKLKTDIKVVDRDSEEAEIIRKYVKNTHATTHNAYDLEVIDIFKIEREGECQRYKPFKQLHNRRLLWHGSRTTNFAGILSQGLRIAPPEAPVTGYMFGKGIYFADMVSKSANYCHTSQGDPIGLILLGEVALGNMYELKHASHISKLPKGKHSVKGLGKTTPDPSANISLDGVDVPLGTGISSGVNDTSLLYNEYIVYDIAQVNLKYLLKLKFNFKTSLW

| pIC50 (MDA-MB-436 [3]) | SMILES | inhibition [1] | inhibition at 0.1 µM (MDA-MB-436 [2]) | inhibition [4] |
| --- | --- | --- | --- | --- |
|  | CCc1cc2ncc(CN3CC=C(c4ccc(C(=O)NC)c(F)c4F)CC3)cc2[nH]c1=O | 46.1% | 16.1% |  |
|  | CCc1cc2ncc(CN3CC=C(c4ncccc4C(=O)NC)CC3)cc2[nH]c1=O | 15% | 26.7% |  |
|  | CCc1cc2ncc(CN3CC=C(c4cccnc4N)CC3)cc2[nH]c1=O | 56.5% | 14.4% |  |
|  | CCc1cc2ncc(CN3CC=C(c4ccc(C)c(F)c4)CC3)cc2[nH]c1=O | 54.4% | 28.2% |  |
|  | CCc1cc2ncc(CN3CC=C(c4c(F)cc(C#N)cc4F)CC3)cc2[nH]c1=O | 10.5% | 16.3% |  |
|  | CCc1cc2ncc(CN3CC=C(c4ccc(C(=O)NC)nc4N)CC3)cc2[nH]c1=O | 27.2% | 19.5% |  |
|  | CCc1cc2ncc(CN3CC=C(c4cnc5ccnn5c4)CC3)cc2[nH]c1=O | 46.3% | 13.6% |  |
|  | CCc1cc2ncc(CN3CC=C(c4ncc(C#N)cc4C)CC3)cc2[nH]c1=O | 15.9% | -10.9% |  |
|  | CCc1cc2ncc(CN3CC=C(c4ccc(C#N)s4)CC3)cc2[nH]c1=O | 46.2% | 45% |  |
| 8.74 | CCc1cc2ncc(CN3CCN(c4ccc([N+](=O)[O-])cc4F)CC3)cc2[nH]c1=O |  |  |  |
|  | CCc1cc2ncc(CN3CC=C(c4ccncc4C#N)CC3)cc2[nH]c1=O | 13.7% | 9.8% |  |
|  | CCc1cc2ncc(CN3CC=C(c4ccc(C(F)(F)F)nc4)CC3)cc2[nH]c1=O | 56.9% | -4.1% | 82.3% |
| 8.39 | CNC(=O)c1ccc(N2CCN(Cc3cnc4cc(C5CC5)c(=O)[nH]c4c3)CC2)c(F)n1 |  |  |  |
|  | CCc1cc2ncc(CN3CC=C(c4ccc(N)nc4)CC3)cc2[nH]c1=O | 10% | 31.1% |  |
|  | CCc1cc2ncc(CN3CC=C(c4ncccc4C#N)CC3)cc2[nH]c1=O | -9.3% | 5.9% |  |
|  | CCc1cc2ncc(CN3CC=C(c4cc(C)c(F)c(C)c4)CC3)cc2[nH]c1=O | -3.8% | 23.6% |  |
| 7.06 | CCc1nc2ccc(CN3CCN(c4ccc(C(=O)NC)nc4F)CC3)c(F)c2[nH]c1=O |  |  |  |
|  | CCc1cc2ncc(CN3CC=C(c4cc(F)c(C)c(F)c4)CC3)cc2[nH]c1=O | 27.5% | 22.2% |  |
|  | CCc1cc2ncc(CN3CC=C(c4ccc(F)c(C)c4)CC3)cc2[nH]c1=O | 46.6% | 30.2% |  |
|  | CCc1cc2ncc(CN3CC=C(c4ncc(C(=O)NC)nc4C)CC3)cc2[nH]c1=O | 77.2% | 41.1% | 85.4% |
|  | CCc1cc2ncc(CN3CC=C(c4ccc(OC)nc4C)CC3)cc2[nH]c1=O | 40.9% | 24% |  |
|  | CCc1cc2ncc(CN3CC=C(c4ccccc4C#N)CC3)cc2[nH]c1=O | 51.6% | 44.8% |  |
|  | CCc1cc2ncc(CN3CC=C(c4ccc(C#N)c(F)c4F)CC3)cc2[nH]c1=O | 54.7% | 45.1% |  |
|  | CCc1cc2ncc(CN3CC=C(c4ccc(C(=O)NC)nc4OC)CC3)cc2[nH]c1=O | 38.8% | 31.3% |  |
|  | CCc1cc2ncc(CN3CC=C(c4cnc(C#N)cn4)CC3)cc2[nH]c1=O | 45.8% | 47.5% |  |
|  | CCc1cc2ncc(CN3CC=C(c4cnccc4C(=O)NC)CC3)cc2[nH]c1=O | 7.4% | 18.5% |  |
| 7.37 | CCc1cc2ncc(CN3CCN(c4ccc(C(=O)NC)nc4F)CC3)c(F)c2[nH]c1=O |  |  |  |

| SMILES | pIC50 (MDA-MB-436 [3]) | inhibition [1] | inhibition at 0.1 µM (MDA-MB-436 [2]) | inhibition [4] |
| --- | --- | --- | --- | --- |
| CCc1cc2ncc(CN3CC=C(c4cnc(C(=O)NC)nc4)CC3)cc2[nH]c1=O | 7.54 | 47.1% | 52.6% |  |
| CCc1cc2ncc(CN3CC=C(c4cc(F)c(C#N)c(F)c4)CC3)cc2[nH]c1=O | 7.79 | 31.3% | 51.9% |  |
| CCc1cc2ncc(CN3CCN(c4ccc(C#N)cc4F)CC3)cc2[nH]c1=O | 8.39 |  |  |  |
